Results taken from patent publication US7390903B2, “Thieno-pyridine derivatives as allosteric enhancers of the GABAB receptors” (Hoffmann-La Roche Inc., priority 2004, dated 2008).

Tests used:
human GABABR1aR2a = molecular target: T1, human GABABR1aR2a (Homo sapiens, UniProt O75899+Q9UBS5); assay: Intracellular Ca2+ mobilization assay in CHO-GABABR1aR2a-Gα16 cell (FLIPR); type: cell-based; details: for GABA shift Log [EC50(GABA + 10 μM cp)/EC50(GABA alone)]: GABA 0.0003-30 μM in absence and presence of 10 μM enhancer; for Emax: enhancer 0.001-30 μM in the presence of 10 nM GABA (EC10), enhancer applied 15 min before GABA, read-out: Emax (%) at 10 nM GABA alone = 0% 10 μM GABA alone = 100%; for EC50: enhancer concentration-response (0.001-30 μM) in the presence of 10 nM GABA
T1 construct: expressed in transfected cells
Description: Intracellular Ca^2+ Mobilization Assay
The Chinese Hamster Ovary (CHO) cells stably expressing human GABABR1aR2a and Gα16 were seeded at 5×10^4 cells/well in the poly-D-lysine treated, 96-well, black/clear-bottomed plates (BD Biosciences, Palo Alto, Calif.). 24 h later, the cells were loaded for 90 min at 37° C. with 4 μM Flou-4 acetoxymethyl ester (Catalog No. F-14202, Molecular Probes, Eugene, Oreg.) in loading buffer (1×HBSS, 20 mM HEPES, 2.5 mM Probenecid). Hanks' Balanced Salt Solution (HBSS) (10×) (catalog No. 14065-049) and HEPES (1M) (catalog No. 15630-056) were purchased from Invitrogen, Carlsbad, Calif. Probenecid (250 mM) (catalog No. P8761) was from Sigma, Buchs, Switzerland. The cells were washed five times with loading buffer to remove excess dye and intracellular calcium mobilization, [Ca^2+]i were measured using a Fluorometric Imaging Plate Reader (FLIPR, Molecular Devices, Menlo Park, Calif.) as described previously (Porter et al., Br. J. Pharmacol., 128, 13-20, 1999). The enhancers were applied 15 min before the application of the GABA. For GABA shift assay, concentration-response curves of GABA (0.0003-30 μM) were determined in the absence and presence of 10 μM enhancer. The GABA-shift is defined as Log [EC50 (GABA+10 μM enhancer)/EC50 (GABA alone)]. The % maximum enhancing effect (% Emax) and potency (EC50 value) of each enhancer was determined from concentration-response curve of the enhancer (0.001-30 μM) in the presence of 10 nM GABA (EC10). Responses were measured as peak increase in fluorescence minus basal, normalized to the maximal stimulatory effect induced by 10 μM GABA alone (considered 100%) and 10 nM GABA alone (considered 0%). The data were fitted with the equation Y=100+(Max−100)/(1+(EC50/[drug])^n) where Max is the maximum effect, EC50 the concentration eliciting a half-maximum effect and n the Hill slope.

[1] = passive avoidance behavioral test in mice and rats; cited from earlier work
[2] = cited from earlier work
[3] = rats; cited from earlier work
[4] = PO, cited from earlier work
[5] = preclinical; cited from earlier work
GABABR1R2 = GABABR1R2 (Homo sapiens, UniProt O75899+Q9UBS5); details: cited from earlier work; for effect on their own at GABAB receptors: absence of GABA; for effect on potency and maximal efficacy of GABA: in concert with endogenous GABA, GABABR1R2
[6] = rat; cited from earlier work
[7] = panic disorder patients; Hamilton, Zung anxiety scales, Katz-R nervousness subscale; cited from earlier work
[8] = small group of veterans with chronic, combat-related PTSD; cited from earlier work

Chain of GABABR1R2 (Q9UBS5 20-961): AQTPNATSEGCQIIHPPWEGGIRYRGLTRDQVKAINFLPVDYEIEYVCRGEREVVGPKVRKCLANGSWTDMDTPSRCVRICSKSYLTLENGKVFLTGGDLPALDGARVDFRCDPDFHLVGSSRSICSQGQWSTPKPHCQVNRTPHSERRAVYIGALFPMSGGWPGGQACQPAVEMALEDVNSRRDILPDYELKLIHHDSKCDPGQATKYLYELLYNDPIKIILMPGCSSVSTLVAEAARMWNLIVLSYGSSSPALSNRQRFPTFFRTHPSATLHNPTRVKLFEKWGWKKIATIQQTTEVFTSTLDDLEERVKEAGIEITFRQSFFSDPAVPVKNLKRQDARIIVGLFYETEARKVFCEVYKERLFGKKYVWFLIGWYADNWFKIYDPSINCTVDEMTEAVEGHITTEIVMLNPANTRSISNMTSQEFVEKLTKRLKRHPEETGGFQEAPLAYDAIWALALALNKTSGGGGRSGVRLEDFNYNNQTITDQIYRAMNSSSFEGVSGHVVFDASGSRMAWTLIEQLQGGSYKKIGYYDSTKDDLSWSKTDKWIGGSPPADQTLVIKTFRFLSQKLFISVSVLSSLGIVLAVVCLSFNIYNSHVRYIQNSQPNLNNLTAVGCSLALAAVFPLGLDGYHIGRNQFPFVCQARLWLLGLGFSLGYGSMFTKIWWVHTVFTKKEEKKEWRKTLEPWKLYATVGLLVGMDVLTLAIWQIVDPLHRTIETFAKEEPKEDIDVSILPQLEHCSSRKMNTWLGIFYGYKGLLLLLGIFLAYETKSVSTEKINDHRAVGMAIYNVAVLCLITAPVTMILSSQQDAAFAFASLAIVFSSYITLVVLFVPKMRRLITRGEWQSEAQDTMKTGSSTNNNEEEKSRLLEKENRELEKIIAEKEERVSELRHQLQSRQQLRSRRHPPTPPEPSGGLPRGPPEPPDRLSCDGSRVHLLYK
Chain of GABABR1R2 (O75899 42-941): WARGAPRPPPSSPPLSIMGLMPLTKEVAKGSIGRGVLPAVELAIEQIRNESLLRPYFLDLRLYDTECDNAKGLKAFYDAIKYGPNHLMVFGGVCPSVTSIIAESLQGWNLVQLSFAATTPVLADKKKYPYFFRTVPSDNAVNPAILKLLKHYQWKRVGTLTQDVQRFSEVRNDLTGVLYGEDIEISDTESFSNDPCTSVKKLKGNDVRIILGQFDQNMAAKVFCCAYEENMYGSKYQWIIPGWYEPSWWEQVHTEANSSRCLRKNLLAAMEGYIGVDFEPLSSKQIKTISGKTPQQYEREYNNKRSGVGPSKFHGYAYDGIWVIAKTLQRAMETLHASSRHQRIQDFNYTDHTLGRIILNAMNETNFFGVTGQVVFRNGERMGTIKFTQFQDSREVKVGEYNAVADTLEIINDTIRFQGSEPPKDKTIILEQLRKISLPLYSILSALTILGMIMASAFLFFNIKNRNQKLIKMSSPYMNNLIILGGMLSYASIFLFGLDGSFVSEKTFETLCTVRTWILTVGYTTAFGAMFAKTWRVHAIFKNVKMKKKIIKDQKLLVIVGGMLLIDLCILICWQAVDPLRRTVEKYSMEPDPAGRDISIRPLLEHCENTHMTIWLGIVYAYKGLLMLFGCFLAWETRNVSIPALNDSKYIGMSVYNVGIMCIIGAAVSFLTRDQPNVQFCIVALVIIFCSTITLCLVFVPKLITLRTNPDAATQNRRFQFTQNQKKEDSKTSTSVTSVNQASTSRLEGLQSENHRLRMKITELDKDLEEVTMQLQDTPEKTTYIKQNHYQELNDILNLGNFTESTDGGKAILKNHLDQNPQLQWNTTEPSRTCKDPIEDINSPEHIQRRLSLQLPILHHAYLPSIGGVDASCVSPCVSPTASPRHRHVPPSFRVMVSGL
T1 sequence (Q9UBS5 15-961 limits assumed): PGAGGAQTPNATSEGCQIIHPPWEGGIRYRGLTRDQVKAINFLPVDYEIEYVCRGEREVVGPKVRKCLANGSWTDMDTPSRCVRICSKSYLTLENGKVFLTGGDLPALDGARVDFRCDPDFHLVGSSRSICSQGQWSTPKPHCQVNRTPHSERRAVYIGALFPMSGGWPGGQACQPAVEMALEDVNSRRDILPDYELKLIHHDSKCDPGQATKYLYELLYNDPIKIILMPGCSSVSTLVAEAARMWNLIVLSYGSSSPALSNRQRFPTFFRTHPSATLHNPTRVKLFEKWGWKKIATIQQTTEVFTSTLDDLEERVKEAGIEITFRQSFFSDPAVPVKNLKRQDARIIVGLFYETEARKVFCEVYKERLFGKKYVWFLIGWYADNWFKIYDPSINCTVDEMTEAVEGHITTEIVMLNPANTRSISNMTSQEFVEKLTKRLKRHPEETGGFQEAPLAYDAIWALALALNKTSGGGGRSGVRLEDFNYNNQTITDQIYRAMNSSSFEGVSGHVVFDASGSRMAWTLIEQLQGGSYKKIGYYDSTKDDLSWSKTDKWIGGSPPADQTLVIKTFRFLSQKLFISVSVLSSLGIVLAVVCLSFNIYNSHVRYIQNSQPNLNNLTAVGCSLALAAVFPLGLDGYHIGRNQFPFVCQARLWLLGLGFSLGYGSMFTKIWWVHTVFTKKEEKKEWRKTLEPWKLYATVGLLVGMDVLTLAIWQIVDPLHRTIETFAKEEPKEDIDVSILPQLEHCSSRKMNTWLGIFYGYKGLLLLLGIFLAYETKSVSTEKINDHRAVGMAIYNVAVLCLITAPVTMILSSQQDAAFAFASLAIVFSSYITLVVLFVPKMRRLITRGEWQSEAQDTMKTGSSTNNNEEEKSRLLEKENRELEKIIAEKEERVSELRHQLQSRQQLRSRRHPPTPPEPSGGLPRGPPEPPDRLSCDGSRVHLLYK
T1 sequence (O75899 42-941): as the sequence (O75899 42-941) above

COC(=O)N1CCc2c(sc3nc(C)c(C(C)=O)c(-c4ccccc4)c23)C1 [Example 38, 3-Acetyl-2-methyl-4-phenyl-5,8-dihydro-6H-9-thia-1,7-diaza-fluorene-7-carboxylic acid methyl ester]
GABA shift Log [EC50(GABA + 10 μM cp)/EC50(GABA alone)] (human GABABR1aR2a): −0.3
Emax (human GABABR1aR2a): 20%
EC50 (human GABABR1aR2a): 1.4 µM

CSc1nc(NC2CCCC2)c([N+](=O)[O-])c(NC2CCCC2)n1 [GS39783, N,N_-dicyclopentyl-2-methylsulfanyl-5-nitro-pyrimidine-4,6-diamine]
effect on cognition performance [1]: did not have any effect
tolerance after chronic treatment ([2]; 21 days, 10 mg/kg, P.O., once daily, light-dark box and elevated zero maze): No tolerance
anxiolytic-like effects ([2]; elevated plus maze (rat), elevated zero maze (mice and rats), stress-induced hyperthermia (mice)): exhibited anxiolytic-like effects
cocaine self-administration [3]: effective at deceasing cocaine self-administration
effect on spontaneous locomotor activity, rotarod, body temperature and traction test ([4]; 0.1-200 mg/kg): had no effect

COC(=O)c1ccc(-c2c(C(=O)C3CC3)c(C)nc3sc4c(c23)CCCCC4)cc1 [Example 35, 4-(3-Cyclopropanecarbonyl-2-methyl-6,7,8,9-tetrahydro-H-10-thia-1-aza-benzo [a]azulen-4-yl)-benzoic acid methyl ester]
GABA shift Log [EC50(GABA + 10 μM cp)/EC50(GABA alone)] (human GABABR1aR2a): −0.91
Emax (human GABABR1aR2a): 56%
EC50 (human GABABR1aR2a): 1.2 µM

Cc1nc2sc(C)c(C)c2c(-c2ccccc2)c1C(=O)C(F)(F)F [Example 16, 2,2,2-Trifluoro-1-(2,3,6-trimethyl-4-phenyl-thieno[2,3-b]pyridin-5-yl)-ethanone]
GABA shift Log [EC50(GABA + 10 μM cp)/EC50(GABA alone)] (human GABABR1aR2a): −0.9
Emax (human GABABR1aR2a): 69%
EC50 (human GABABR1aR2a): 2.4 µM

CC(C)(CO)Cc1cc(C(C)(C)C)c(O)c(C(C)(C)C)c1 [CGP7930, 2,6-di-tert-butyl-4-(3-hydroxy-2,2-dimethyl-propyl)-phenol]
cocaine self-administration [3]: effective at deceasing cocaine self-administration
efficacy for treatment of GERD [5]: found to be effective
effect on their own at GABAB receptors (GABABR1R2): no effect on their own
effect on potency and maximal efficacy of GABA (GABABR1R2): increase both the potency and maximal efficacy of GABA

CC(=O)c1c(C)nc2sc3c(c2c1-c1ccco1)CCC3 [Example 18, 1-(4-Furan-2-yl-2-methyl-6,7-dihydro-5H-cyclopenta[4,5]thieno[2,3-b]pyridin-3-yl)-ethanone]
GABA shift Log [EC50(GABA + 10 μM cp)/EC50(GABA alone)] (human GABABR1aR2a): −1
Emax (human GABABR1aR2a): 58%
EC50 (human GABABR1aR2a): 0.86 µM

CC(=O)c1c(C)nc2sc3cnccc3c2c1-c1ccccc1 [Example 23, 1-(2-Methyl-4-phenyl-9-thia-1,7-diaza-fluoren-3-yl)-ethanone]
GABA shift Log [EC50(GABA + 10 μM cp)/EC50(GABA alone)] (human GABABR1aR2a): −0.6
Emax (human GABABR1aR2a): 35%
EC50 (human GABABR1aR2a): 1.3 µM

NCC(CC(=O)O)c1ccc(Cl)cc1 (stereo not drawn) [Baclofen, β-chlorophenyl GABA]
reversal of reduction in prepulse inhibition (PPI) induced by dizocilpine [6]: able to reverse the reduction in prepulse inhibition
number of panic attacks and symptoms of anxiety [7]: significantly effective in reducing the number of panic attacks and symptoms of anxiety
treatment of PTSD [8]: effective and well-tolerated treatment
side effects (spontaneous locomotor activity, rotarod, body temperature, traction test) ([4]; 2.5-15 mg/kg): showed these side effects

Cc1nc2sc(Cl)cc2c(-c2ccccc2)c1C(=O)C(F)(F)F [Example 21, 1-(2-Chloro-6-methyl-4-phenyl-thieno[2,3-b]pyridin-5-yl)-2,2,2-trifluoro-ethanone]
GABA shift Log [EC50(GABA + 10 μM cp)/EC50(GABA alone)] (human GABABR1aR2a): −1.1
Emax (human GABABR1aR2a): 66%
EC50 (human GABABR1aR2a): 1.9 µM

Cc1nc2sc3c(c2c(-c2cccs2)c1C(=O)C(F)(F)F)CCC3 [Example 2, 2,2,2-Trifluoro-1-(2-methyl-4-thiophen-2-yl-6,7-dihydro-5H-cyclopenta[4,5]thieno[2,3-b]pyridin-3-yl)-ethanone]
GABA shift Log [EC50(GABA + 10 μM cp)/EC50(GABA alone)] (human GABABR1aR2a): −0.9
Emax (human GABABR1aR2a): 59%
EC50 (human GABABR1aR2a): 1.3 µM

Cc1nc2sc3c(c2c(-c2ccc(Cl)c(Cl)c2)c1C(=O)C(F)(F)F)CCC3 [Example 1, 1-[4-(3,4-Dichloro-phenyl)-2-methyl-6,7-dihydro-5H-cyclopenta[4,5]thieno[2,3-b]pyridin-3-yl]-2,2,2-trifluoro-ethanone]
GABA shift Log [EC50(GABA + 10 μM cp)/EC50(GABA alone)] (human GABABR1aR2a): −0.3
Emax (human GABABR1aR2a): 47%
EC50 (human GABABR1aR2a): 14.7 µM

CC(C)(C=O)Cc1cc(C(C)(C)C)c(O)c(C(C)(C)C)c1 [CGP13501]
effect on their own at GABAB receptors (GABABR1R2): no effect on their own
effect on potency and maximal efficacy of GABA (GABABR1R2): increase both the potency and maximal efficacy of GABA
